# From US20230103631A1, “PEPTIDES AS SELECTIVE GIP RECEPTOR AGONISTS” (Sanofi, priority 2020, published 2023)
# *1 amine or outer side, *2 acyl side, *3 side chain or, on linkers, in order; H or OH if unused. Where a SMILES comes first, the peptide text is derived from it. Side-chain parts run from the residue outwards. [ ]: non-standard residue; d: D form. The star is where a group is joined. C18 diacid = O=C(O)CCCCCCCCCCCCCCCCC(=O)*; γGlu = O=C(O)[C@H](CCC(=O)[*:2])N[*:1]; NMeY = CN[C@@H](Cc1ccc(O)cc1)C(=O)O; AEEA = NCCOCCOCC(=O)O; Aib = CC(C)(N)C(=O)O; Sar = CNCC(=O)O
# Tests used:
# [1] = ThT assay for the assessment of physical stability; type: physicochemical; settings: ThT buffer system A: 100 mM phosphate buffer pH 7.4; 3 mg/ml, 37° C.
# From the text: Low physical stability of a peptide solution may lead to amyloid fibril formation, which is observed as well-ordered, thread-like macromolecular structures in the sample, which eventually may lead to gel formation. Thioflavin T (ThT) is widely used to visualize and quantify the presence of misfolded protein aggregates [Biancalana et al., Biochim. Biophys. Acta 2010, 1804(7), 1405]. […] Enzymol. 1999, 309, 274]. The time course for fibril formation often follows the characteristic shape of a sigmoidal curve and can be separated into three regions: a lag phase, a fast growth phase, and a plateau phase.
# The typical fibril formation process starts with the lag phase in which the amount of partially folded peptide turned into fibrils is not significant enough to be detected. The lag-time corresponds to the time the critical mass of the nucleus is built. Afterwards, a drastic elongation phase follows, and fibril concentration increases rapidly.
# Investigations were carried out to determine fibrillation tendencies under stress conditions by shaking at 37° C. within Fluoroskan Ascent FL or Fluoroskan Ascent.
# For the tests in Fluoroskan Ascent (FL), 200 μl sample were placed into a 96-well mictrotiter plate PS, flat bottom, Greiner Fluotrac No. 655076. Plates were sealed with Scotch Tape (Qiagen). Samples were stressed by continuous cycles of 10 sec shaking at 960 rpm and 50 sec rest period at 37° C. The kinetic was monitored by measuring fluorescence intensity every 20 min.
# Peptides were diluted in a buffer system to a final concentration of 3 mg/ml. 20 μl of a 10.1 mM ThT solution in H2O were added to 2 ml of peptide solution to receive a final concentration of 100 μM ThT. For each sample eight replicates were tested.
# ThT buffer system A) 100 mM phosphate buffer pH 7.4
# ThT buffer system B) 100 mM phosphate buffer pH 7.4, 2.7 mg/ml m-cresol
# Lag time in hours (h) in Thioflavin T (ThT) assay of peptide samples was determined in ThT buffer system A as described in Methods.
# [2] = Chemical stability assessment (relative purity loss by UHPLC-UV); type: physicochemical; settings: Chemical stability buffer system A: 20 mM phosphate buffer pH 7.4
# Procedure: Purity of a peptide batch was determined through UHPLC/MS prior to chemical stability measurement. The target concentration was […] pure compound. Solutions from solid samples were prepared in the following buffer systems with a concentration of ˜300 μM compound based on the previously determined % purity:
# Chemical stability buffer system A) 20 mM phosphate buffer pH 7.4,
# Chemical stability buffer system B) 8 mM phosphate buffer pH 7.4, 14 mg/ml propylene glycol, 5.5 mg/ml phenol
# Chemical stability buffer system C) 100 mM phosphate buffer pH 7.4, 2.7 mg/ml m-cresol
# Prepared solutions were filtered through […] pore size and filled into sterilized glass containers under laminar flow conditions.
# Glass containers were stored for 28 days at 5 and 40° C. After this time, the samples were centrifuged for 15 min at 2500 RCF. Then 1.5 μl of the undiluted supernatant were analysed with UHPLC-UV.
# The chemical stability was rated through the relative loss of purity calculated by the equation:
# [(purity after 28 days at 5° C.)−(purity after 28 days at 40° C.)]/(purity after 28 days at 5° C.)]*100%
# The purity is calculated as
# [(peak area peptide)/(total peak area)]*100%
# The analytical methods used were Analytical UHPLC Method B or C.
# Peptide samples were prepared in Chemical stability buffer system A or B and stability was assessed as described in Methods.
# [3] = target: human GLP-1 receptor (hGLP-1R) (Homo sapiens, UniProt P43220); experiment: cAMP HTRF assay, HEK-293 cell line over-expressing human GLP-1 receptor; type: cell-based; settings: HEK-293, cAMP, 0% HSA
# Chain of human GLP-1 receptor (hGLP-1R) (P43220 24-463): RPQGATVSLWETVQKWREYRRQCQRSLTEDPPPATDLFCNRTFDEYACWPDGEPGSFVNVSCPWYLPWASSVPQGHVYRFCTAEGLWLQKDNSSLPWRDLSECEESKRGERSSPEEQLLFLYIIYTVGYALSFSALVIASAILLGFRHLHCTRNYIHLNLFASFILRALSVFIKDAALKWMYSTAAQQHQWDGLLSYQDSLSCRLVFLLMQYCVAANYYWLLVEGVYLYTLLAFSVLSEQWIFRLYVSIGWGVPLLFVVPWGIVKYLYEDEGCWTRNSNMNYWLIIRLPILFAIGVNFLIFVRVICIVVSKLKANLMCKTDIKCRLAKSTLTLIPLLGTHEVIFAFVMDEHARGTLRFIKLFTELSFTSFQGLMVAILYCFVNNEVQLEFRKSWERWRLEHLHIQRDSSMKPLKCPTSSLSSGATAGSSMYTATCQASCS
# How it was run: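 Thawed HEK-293 cells over-expressing human GLP-1R (5000 cells/well) in HBSS/20 mM HEPES buffer, with 0.1% HSA where stated, incubated with compound for 30 min at room temperature. Generated cAMP quantified by HTRF.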
# [4] = target: T1, human GIP receptor (hGIPR) (Homo sapiens, UniProt P48546); experiment: Binding assay, displacement of [125I]GIP from HEK-293 membranes expressing GIPR; settings: [125I]GIP displacement
# T1 sequence (P48546 22-466): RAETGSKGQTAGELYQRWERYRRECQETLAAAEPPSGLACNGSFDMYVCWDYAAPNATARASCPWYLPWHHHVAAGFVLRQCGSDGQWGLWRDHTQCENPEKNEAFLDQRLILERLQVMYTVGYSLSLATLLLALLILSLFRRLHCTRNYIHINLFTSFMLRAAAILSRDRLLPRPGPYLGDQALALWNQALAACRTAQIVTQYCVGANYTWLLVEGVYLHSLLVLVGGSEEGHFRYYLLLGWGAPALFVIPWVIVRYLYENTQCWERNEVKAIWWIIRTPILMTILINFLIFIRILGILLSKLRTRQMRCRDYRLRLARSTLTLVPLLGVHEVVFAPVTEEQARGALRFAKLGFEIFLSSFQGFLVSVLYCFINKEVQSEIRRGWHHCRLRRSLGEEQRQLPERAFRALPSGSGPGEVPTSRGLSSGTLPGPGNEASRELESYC
# Procedure: HEK-293 cells recombinantly over-expressing GIPR or GLP-1R were grown to 50% confluency, washed with warm 1×PBS (Gibco) and detached in HEPES/EDTA-buffer (100 mM HEPES pH 7.5, 5 mM EDTA). Cells were harvested by centrifugation at 4° C. and 3000×g and the pellets were stored at −80° C. until further processing.
# After thawing on ice, pellets were resuspended in HEPES/EDTA-buffer and homogenized on ice for 1 min using Ultra-Turray T25. After subsequent sonification the cell debris was removed by centrifugation at 1000×g and 4° C. Supernatants were then ultra-centrifuged at 100000×g and 4° C. under vacuum for 30 min. Pellets were resuspended in HEPES/EDTA/NaCl-buffer (20 mM HEPES, 1 mM EDTA, 150 mM NaCl; add 1 Complete Mini Protease inhibitor cocktail to 10 ml buffer) and protein content was determined via BCA-Protein assay.
Structure (SMILES),Increase in FI [1],Lag time before increase [1] [h],Relative purity loss over 28 days at 40° C. [2] [%],EC50 [3] [nM],IC50 [4] [nM]
"CC[C@H](C)[C@H](NC(=O)[C@H](CCCNC(=N)N)NC(=O)[C@H](CC(=O)O)NC(=O)[C@H](CCCCNC(=O)CN(C)C(=O)CN(C)C(=O)CN(C)C(=O)CC[C@H](NC(=O)CCCCCCCCCCCCCCCCC(=O)O)C(=O)O)NC(=O)C(C)(C)NC(=O)[C@@H](NC(=O)[C@H](CO)NC(=O)[C@H](CC(C)C)NC(=O)[C@H](CC(=O)O)NC(=O)[C@H](CO)NC(=O)[C@@H](NC(=O)[C@H](Cc1ccccc1)NC(=O)[C@@H](NC(=O)CNC(=O)[C@H](CCC(=O)O)NC(=O)C(C)(C)NC(=O)[C@@H](N)Cc1ccc(O)cc1)[C@@H](C)O)[C@@H](C)CC)[C@@H](C)CC)C(=O)N[C@@H](Cc1c[nH]cn1)C(=O)N[C@@H](CCC(N)=O)C(=O)NC(C)(C)C(=O)N[C@@H](CCC(=O)O)C(=O)N[C@@H](Cc1ccccc1)C(=O)N[C@H](C(=O)N[C@@H](CCC(=O)O)C(=O)N[C@@H](Cc1c[nH]c2ccccc12)C(=O)N[C@@H](CC(C)C)C(=O)N[C@@H](CC(C)C)C(=O)N[C@@H](C)C(=O)N[C@@H](CCC(N)=O)C(=O)NCC(=O)N1CCC[C@H]1C(=O)N[C@@H](CO)C(=O)N[C@@H](CO)C(=O)NCC(=O)N[C@@H](C)C(=O)N1CCC[C@H]1C(=O)N1CCC[C@H]1C(=O)N1CCC[C@H]1C(=O)N[C@@H](CO)C(N)=O)[C@@H](C)CC [SEQ ID NO: 6, H2N-Y-Aib-E-G-T-F-I-S-D-I-S-I-Aib-K[{N-MeGly}3-gGlu-C18OH]-D-R-I-H-Q-Aib-E-F-I-E-W-I-L-A-Q-G-P-S-S-G-A-P-P-P-S-NH2] (H-Y[Aib]EGTFISDLSI[Aib]K([Sar-Sar-Sar-γGlu-C18 diacid])DRIHQ[Aib]EFIEWLLAQGPSSGAPPPS-NH2)",no,>45,5.4,> 10,0.1
"CC[C@H](C)[C@H](NC(=O)[C@H](CCCNC(=N)N)NC(=O)[C@H](CC(=O)O)NC(=O)[C@H](CCCCNC(=O)COCCOCCNC(=O)COCCOCCNC(=O)CC[C@H](NC(=O)CCCCCCCCCCCCCCCCC(=O)O)C(=O)O)NC(=O)C(C)(C)NC(=O)[C@@H](NC(=O)[C@H](CO)NC(=O)[C@H](CC(C)C)NC(=O)[C@H](CC(=O)O)NC(=O)[C@H](CO)NC(=O)[C@@H](NC(=O)[C@H](Cc1ccccc1)NC(=O)[C@@H](NC(=O)CNC(=O)[C@H](CCC(=O)O)NC(=O)C(C)(C)NC(=O)[C@H](Cc1ccc(O)cc1)NC)[C@@H](C)O)[C@@H](C)CC)[C@@H](C)CC)C(=O)N[C@@H](Cc1c[nH]cn1)C(=O)N[C@@H](CCC(N)=O)C(=O)NC(C)(C)C(=O)N[C@@H](CCC(=O)O)C(=O)N[C@@H](Cc1ccccc1)C(=O)N[C@H](C(=O)N[C@@H](CCC(=O)O)C(=O)N[C@@H](Cc1c[nH]c2ccccc12)C(=O)N[C@@H](CC(C)C)C(=O)N[C@@H](CC(C)C)C(=O)N[C@@H](C)C(=O)N[C@@H](CCC(N)=O)C(=O)NCC(=O)N1CCC[C@H]1C(=O)N[C@@H](CO)C(=O)N[C@@H](CO)C(=O)NCC(=O)N[C@@H](C)C(=O)N1CCC[C@H]1C(=O)N1CCC[C@H]1C(=O)N1CCC[C@H]1C(=O)N[C@@H](CO)C(N)=O)[C@@H](C)CC [SEQ ID NO: 8, MeHN-Y-Aib-E-G-T-F-I-S-D-I-S-I-Aib-K[{AEEA}2-gGlu-C180H]-D-R-I-H-Q-Aib-E-F--E-W-I-L-A-Q-G-P-S-S-G-A-P-P-P-S-NH2] (H-[NMeY][Aib]EGTFISDLSI[Aib]K([AEEA-AEEA-γGlu-C18 diacid])DRIHQ[Aib]EFIEWLLAQGPSSGAPPPS-NH2)",no,>45,4.7,> 10,0.2
